Experimental data as given in patent US7592457B2 (Korea Research Institute of Chemical Technology, priority 2004, dated 2009).

Legend:
[1] = target: T1, human serotonin 5-HT6 receptor (Homo sapiens, UniProt P50406); test: [3H]LSD binding at cloned 5-HT6 receptors; conditions: for IC50: [3H]LSD 1.87 nM, cloned receptor membranes, 37° C., 60 min, read-out: IC50; for 5-HT6 affinity compared with known selective antagonists: in words; for inhibition at 10 µM: read-out: Binding affinity (Inhibition rate % at 10 μM) 5HT6
T1 construct: made in house; host or cells: Sf21 insect cells (pBacPAK8 baculovirus vector)

D1 = D1 (Homo sapiens, UniProt P21728); test: Radioligand binding for selectivity, D1; conditions: read-out: Binding affinity (Inhibition rate % at 10 μM) D1
hD2L receptor = target: T2, hD2L receptor (Homo sapiens, UniProt P14416); test: Radioligand binding, dopamine D2 ([3H]spiperone); conditions: read-out: Binding affinity (Inhibition rate % at 10 μM) D2
T2 construct: purchased BioSignal Packard Inc., Montreal, Canada

hD3 receptor = target: T3, hD3 receptor (Homo sapiens, UniProt P35462); test: Radioligand binding, dopamine D3 ([3H]spiperone); conditions: read-out: Binding affinity (Inhibition rate % at 10 μM) D3
T3 construct: purchased BioSignal Packard Inc., Montreal, Canada

hD4.2 receptor = target: T4, hD4.2 receptor (Homo sapiens, UniProt P21917, DEL265-296); test: Radioligand binding, dopamine D4 ([3H]YM-09151-2); conditions: read-out: Binding affinity (Inhibition rate % at 10 μM) D4
T4 construct: purchased BioSignal Packard Inc., Montreal, Canada
T4 sequence (P21917 with tags, fused parts or gaps DEL265-296): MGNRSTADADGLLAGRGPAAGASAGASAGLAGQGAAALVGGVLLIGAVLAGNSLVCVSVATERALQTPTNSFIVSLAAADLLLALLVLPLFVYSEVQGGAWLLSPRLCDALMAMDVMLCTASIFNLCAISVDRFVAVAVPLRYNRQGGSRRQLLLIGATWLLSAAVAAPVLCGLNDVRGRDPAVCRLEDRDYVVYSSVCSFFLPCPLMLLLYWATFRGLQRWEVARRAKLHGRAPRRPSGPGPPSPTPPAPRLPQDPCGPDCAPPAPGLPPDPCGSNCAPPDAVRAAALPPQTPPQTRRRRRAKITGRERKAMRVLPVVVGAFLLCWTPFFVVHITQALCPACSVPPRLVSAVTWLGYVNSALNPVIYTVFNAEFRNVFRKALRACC

5-HT1a = target: T5, 5-HT1a (Homo sapiens, UniProt P08908); test: Radioligand binding, 5-HT1a ([3H]8-OH-DPAT); conditions: read-out: Binding affinity (Inhibition rate % at 10 μM) 5HT1a
T5 construct: purchased Euroscreen/BioSignal Packard Inc
T5 sequence (P08908 1-422): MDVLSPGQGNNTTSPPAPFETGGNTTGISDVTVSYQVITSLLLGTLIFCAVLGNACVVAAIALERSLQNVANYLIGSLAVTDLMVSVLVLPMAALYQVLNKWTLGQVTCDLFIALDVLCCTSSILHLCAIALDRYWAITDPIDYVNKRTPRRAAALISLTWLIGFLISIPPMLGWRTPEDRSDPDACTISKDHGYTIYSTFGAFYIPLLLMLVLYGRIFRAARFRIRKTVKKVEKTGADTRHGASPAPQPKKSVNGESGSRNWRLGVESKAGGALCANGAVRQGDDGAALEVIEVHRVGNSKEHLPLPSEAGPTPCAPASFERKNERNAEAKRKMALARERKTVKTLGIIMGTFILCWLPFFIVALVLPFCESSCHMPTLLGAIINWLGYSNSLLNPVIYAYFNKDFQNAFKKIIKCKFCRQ
Protocol: (§1) Radioligand bindings were performed according to the test method provided by the supplier of receptor membrane (Euroscreen/BioSignal Packard Inc.).

5-HT2a = target: T6, 5-HT2a (Homo sapiens, UniProt P28223); test: Radioligand binding, 5-HT2a ([3H]Ketanserin); conditions: read-out: Binding affinity (Inhibition rate % at 10 μM) 5HT2a
T6 construct: purchased Euroscreen/BioSignal Packard Inc
Protocol: as §1

5-HT2c = target: T7, 5-HT2c (Homo sapiens, UniProt P28335); test: Radioligand binding, 5-HT2c ([3H]Mesulergine); conditions: read-out: Binding affinity (Inhibition rate % at 10 μM) 5HT2c
T7 construct: purchased Euroscreen/BioSignal Packard Inc
T7 sequence (P28335 33-458): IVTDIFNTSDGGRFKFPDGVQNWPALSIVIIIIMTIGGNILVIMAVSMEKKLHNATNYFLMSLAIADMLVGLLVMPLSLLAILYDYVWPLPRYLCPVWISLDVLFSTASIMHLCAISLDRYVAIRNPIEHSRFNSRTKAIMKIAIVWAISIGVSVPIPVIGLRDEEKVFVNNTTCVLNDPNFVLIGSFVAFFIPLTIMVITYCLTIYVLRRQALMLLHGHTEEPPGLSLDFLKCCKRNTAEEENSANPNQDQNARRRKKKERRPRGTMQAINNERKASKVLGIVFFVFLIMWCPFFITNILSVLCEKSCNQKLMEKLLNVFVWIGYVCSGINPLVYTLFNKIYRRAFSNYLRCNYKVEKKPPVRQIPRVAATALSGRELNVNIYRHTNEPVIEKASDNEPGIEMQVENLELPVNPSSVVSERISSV
Protocol: as §1

5-HT7 = target: T8, 5-HT7 (Homo sapiens, UniProt P34969); test: Radioligand binding, 5-HT7 ([3H]LSD); conditions: read-out: Binding affinity (Inhibition rate % at 10 μM) 5HT7
T8 construct: purchased Euroscreen/BioSignal Packard Inc
Protocol: as §1

[2] = test system: methamphetamine-induced hyperactivity and stereotypy; test: Methamphetamine-induced hyperactivity and stereotypy in rats; format: in vivo, rat; conditions: 50 mg/kg, i.p., methamphetamine 2 mg/kg
Protocol: On the day of testing, rats (200-250 g) were put into a transparent polycarbonate cages located in the activity chamber, and adapted for 30 minutes. For a methamphetamine-induced activity, vehicle or compounds according to the present invention was injected (i.p.) 30 minutes before the injection of methamphetamine (2 mg/kg, i.p.). After systemic injection of methamphetamine, total movement distance traveled or total stereotypy was measured over the 120-minutes period using an activity analyzer (TruScan, Coulbourn Instruments, USA).
The inhibitory effect of compounds (50 mg/kg, i.p.) of the present invention on methamphetamine (2 mg/kg, i.p.)-induced hyperactivity in rats is shown in FIGS. 2(a) and 2(b). The inhibitory effects of compounds (50 mg/kg, i.p.) of the present invention on methamphetamine (2 mg/kg, i.p.)-induced stereotypy is shown in FIGS. 3(a) and 3(b).

5-HT6 receptors [3] = target: T9, 5-HT6 receptors (Homo sapiens, UniProt P50406); test: 5-HT-stimulated cAMP accumulation in HeLa cell transfected with human 5-HT6 receptor; format: cell-based; parameters: host or cells: HeLa; conditions: for Antagonist activity compared with methiothepin: 5-HT-stimulated cAMP accumulation; for Functional classification at 5-HT6 receptor: inhibition of 5-HT-stimulated cAMP accumulation
Protocol: By a method (2000) disclosed by Rutledge et al. of MDS Pharma Service (Bothell, Wash., USA, MDSPS PT# 1037161), activity of adenylil cyclase in HeLa cell having transfected with human 5-HT6 receptor was measured. The assay mixture consisted of Hanks' balanced salt solution (HBSS, pH 7.4) containing: 1 mM MgCl2, 1 mM CaCl2, […] 1-methyl-3-isobutylxanthine. Incubation was started by addition of membrane suspension and compounds according to the present invention.

5-HT6 receptors [4] = target: T9, 5-HT6 receptors; conditions: antagonist, literature; cited from earlier work
rats = conditions: water maze, literature; cited from earlier work
[5] = test system: rat maximal electroseizure threshold; conditions: rat maximal electroseizure threshold, oral administration, literature; cited from earlier work
[6] = in vivo; cited from earlier work

T8 sequence (P34969 whole entry): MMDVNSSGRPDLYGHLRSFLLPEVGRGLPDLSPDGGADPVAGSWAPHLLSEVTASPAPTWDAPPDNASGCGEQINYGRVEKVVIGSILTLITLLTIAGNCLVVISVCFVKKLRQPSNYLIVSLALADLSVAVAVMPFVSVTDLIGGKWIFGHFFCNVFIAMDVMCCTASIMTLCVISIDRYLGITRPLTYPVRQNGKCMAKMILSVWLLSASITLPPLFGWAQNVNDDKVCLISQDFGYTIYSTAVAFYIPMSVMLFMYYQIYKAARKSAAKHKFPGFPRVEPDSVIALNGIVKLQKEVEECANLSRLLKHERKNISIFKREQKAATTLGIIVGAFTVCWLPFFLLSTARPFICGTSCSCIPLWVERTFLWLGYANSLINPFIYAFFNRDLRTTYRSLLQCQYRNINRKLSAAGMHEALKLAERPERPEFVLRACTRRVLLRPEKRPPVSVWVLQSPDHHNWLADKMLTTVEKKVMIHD
T6 sequence (P28223 whole entry): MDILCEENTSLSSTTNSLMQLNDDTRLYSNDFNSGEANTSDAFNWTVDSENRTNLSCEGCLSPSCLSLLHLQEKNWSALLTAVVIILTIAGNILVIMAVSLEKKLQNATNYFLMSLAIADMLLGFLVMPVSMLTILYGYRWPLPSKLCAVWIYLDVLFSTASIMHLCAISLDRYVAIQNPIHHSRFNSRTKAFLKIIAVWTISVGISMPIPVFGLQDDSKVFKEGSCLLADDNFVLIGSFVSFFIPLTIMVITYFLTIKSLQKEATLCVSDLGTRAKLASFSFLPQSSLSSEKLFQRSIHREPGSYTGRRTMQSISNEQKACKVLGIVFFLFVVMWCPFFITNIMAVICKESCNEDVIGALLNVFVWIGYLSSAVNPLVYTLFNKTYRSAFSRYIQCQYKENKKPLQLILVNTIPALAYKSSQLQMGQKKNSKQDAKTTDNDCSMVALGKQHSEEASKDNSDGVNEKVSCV
T9 sequence (P50406 whole entry): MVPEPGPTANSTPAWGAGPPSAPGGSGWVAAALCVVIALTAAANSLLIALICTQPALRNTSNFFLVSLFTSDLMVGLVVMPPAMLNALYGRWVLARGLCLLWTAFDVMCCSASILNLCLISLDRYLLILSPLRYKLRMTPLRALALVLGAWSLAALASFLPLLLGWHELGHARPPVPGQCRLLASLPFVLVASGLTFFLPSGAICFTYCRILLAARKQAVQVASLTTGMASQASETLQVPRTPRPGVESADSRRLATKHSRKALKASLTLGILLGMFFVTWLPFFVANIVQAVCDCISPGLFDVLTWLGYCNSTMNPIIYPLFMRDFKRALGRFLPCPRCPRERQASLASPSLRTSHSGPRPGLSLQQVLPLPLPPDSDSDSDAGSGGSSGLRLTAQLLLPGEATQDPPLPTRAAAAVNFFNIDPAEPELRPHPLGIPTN
T1 sequence (P50406 whole entry): as above
T3 sequence (P35462 whole entry): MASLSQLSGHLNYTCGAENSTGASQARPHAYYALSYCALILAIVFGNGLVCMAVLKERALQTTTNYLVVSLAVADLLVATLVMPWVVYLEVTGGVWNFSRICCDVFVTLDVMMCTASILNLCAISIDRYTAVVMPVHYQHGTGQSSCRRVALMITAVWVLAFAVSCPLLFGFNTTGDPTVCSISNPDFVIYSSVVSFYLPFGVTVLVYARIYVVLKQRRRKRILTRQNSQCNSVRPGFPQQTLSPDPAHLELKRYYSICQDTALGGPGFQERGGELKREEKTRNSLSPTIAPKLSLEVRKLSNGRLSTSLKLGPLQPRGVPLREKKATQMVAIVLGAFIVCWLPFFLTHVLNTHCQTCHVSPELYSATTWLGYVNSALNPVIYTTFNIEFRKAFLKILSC
Chain of D1 (P21728 whole entry): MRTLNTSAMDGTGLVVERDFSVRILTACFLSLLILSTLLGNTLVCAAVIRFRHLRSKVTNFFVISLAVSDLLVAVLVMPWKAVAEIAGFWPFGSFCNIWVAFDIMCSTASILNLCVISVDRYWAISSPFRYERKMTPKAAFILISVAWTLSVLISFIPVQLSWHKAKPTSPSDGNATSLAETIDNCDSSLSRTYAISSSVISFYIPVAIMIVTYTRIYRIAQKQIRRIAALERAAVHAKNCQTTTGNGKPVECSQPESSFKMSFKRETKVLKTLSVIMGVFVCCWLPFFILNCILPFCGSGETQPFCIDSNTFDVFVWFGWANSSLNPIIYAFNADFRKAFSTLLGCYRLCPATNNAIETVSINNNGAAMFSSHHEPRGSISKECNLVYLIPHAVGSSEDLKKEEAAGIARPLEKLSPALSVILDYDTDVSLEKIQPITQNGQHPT
T2 sequence (P14416 whole entry): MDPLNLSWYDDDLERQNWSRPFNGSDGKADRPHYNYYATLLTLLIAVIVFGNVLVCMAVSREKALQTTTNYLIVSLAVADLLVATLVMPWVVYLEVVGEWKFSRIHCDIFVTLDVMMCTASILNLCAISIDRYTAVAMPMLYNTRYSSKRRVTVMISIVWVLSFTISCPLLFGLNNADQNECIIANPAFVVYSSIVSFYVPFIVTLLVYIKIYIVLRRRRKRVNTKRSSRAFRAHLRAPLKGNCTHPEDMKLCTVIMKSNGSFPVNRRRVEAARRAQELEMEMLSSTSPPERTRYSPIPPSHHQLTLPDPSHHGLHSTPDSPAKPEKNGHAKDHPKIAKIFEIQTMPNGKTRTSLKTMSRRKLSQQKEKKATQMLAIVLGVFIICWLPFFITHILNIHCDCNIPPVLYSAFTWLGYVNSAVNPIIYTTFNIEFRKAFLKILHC

Row | SMILES | IC50 [1] [nM] | 5-HT6 affinity compared with known selective antagonists [1] | inhibition at 10 µM [1] [%] | inhibition at 10 µM (D1) [%] | inhibition at 10 µM (hD2L receptor) [%] | inhibition at 10 µM (hD3 receptor) [%] | inhibition at 10 µM (hD4.2 receptor) [%] | inhibition at 10 µM (5-HT1a) [%] | inhibition at 10 µM (5-HT2a) [%] | inhibition at 10 µM (5-HT2c) [%] | inhibition at 10 µM (5-HT7) [%] | Antipsychotic effect [2] | melting point [°C] | Antagonist activity compared with methiothepin (5-HT6 receptors [3]) | Functional classification at 5-HT6 receptor (5-HT6 receptors [3]) | pA2 (5-HT6 receptors [4]) | retention of a previously learned task (rats) | seizure threshold [5] | clearance (in words) [6]
1 | CC1(c2ccccc2)C(=O)Nc2cc(Cl)cc(Cl)c2C1=O (centres unmarked) [Example 1, 5,7-dichloro-3-methyl-3-phenyl-1H-quinoline-2,4-dione] | 89 | almost same affinities as or better affinities than known selective antagonists | 91.1 | 11.4 | 1.6 | 12.6 | 0 | 16.4 | 6.4 | 18.3 | 43.2 | mild antipsychotic effect | 222 to 225 | weaker antagonist activity than methiothepin | 5-HT6 receptor antagonist | – | – | – | –
2 | CC1(c2ccc(O)cc2)C(=O)Nc2cc(Cl)cc(Cl)c2C1=O (centres unmarked) [Example 13, 5,7-dichloro-3-(4-hydroxy-phenyl)-3-methyl-1H-quinoline-2,4-dione] | 20 | almost same affinities as or better affinities than known selective antagonists | 89.5 | 51 | 35.2 | 27.8 | 0 | 33.9 | 48.6 | 39.4 | 36.7 | mild antipsychotic effect | 222 to 223 | weaker antagonist activity than methiothepin | 5-HT6 receptor antagonist | – | – | – | –
3 | COc1ccc2c(c1)c(CCN(C)C)cn2S(=O)(=O)c1ccccc1 [MS-245] | – | – | – | – | – | – | – | – | – | – | – | – | – | – | – | 8.88 | – | – | –
4 | COc1cc(Cl)cc2c1C(=O)C(C)(c1ccccc1)C(=O)N2 (centres unmarked) [Example 6, 7-chloro-5-methoxy-3-methyl-3-phenyl-1H-quinoline-2,4-dione] | 428 | – | 68.3 | 31.1 | 29.7 | 23 | 1.6 | 65.8 | 10.6 | 13.5 | 19.5 | – | 267 to 269 | – | – | – | – | – | –
5 | COc1ccc(S(=O)(=O)Nc2cc(Br)cc(F)c2Br)cc1N1CCNCC1 [SB-357134] | – | – | – | – | – | – | – | – | – | – | – | – | – | – | – | – | significant improvement in retention of a previously learned task | potent and dose-dependent increase in seizure threshold | low clearance rate
6 | COc1cc(Cl)c2c(c1)NC(=O)C(C)(c1ccc(Br)cc1)C2=O (centres unmarked) [Example 52, 3-(4-bromo-phenyl)-5-chloro-7-methoxy-3-methyl-1H-quinoline-2,4-dione] | 73 | almost same affinities as or better affinities than known selective antagonists | 89.6 | 41.5 | 9.3 | 7.4 | 0 | 7.8 | 30.6 | 20 | 8.8 | – | 239 to 240 | – | – | – | – | – | –
7 | CC1(c2ccc(O)c(Br)c2)C(=O)Nc2cc(Cl)cc(Cl)c2C1=O (centres unmarked) [Example 24, 3-(3-bromo-4-hydroxy-phenyl)-5,7-dichloro-3-methyl-1H-quinoline-2,4-dione] | 126 | – | 71 | 13 | 5 | 16.6 | 0 | 50.4 | 11.5 | 22.8 | 5.5 | – | 228 to 229 | – | – | – | – | – | –
8 | CN1CCN(c2ccc3c(c2)NC(=O)C(C)(c2ccc([N+](=O)[O-])cc2)C3=O)CC1 (centres unmarked) [Example 51, 3-methyl-7-(4-methyl-piperazine-1-yl)-3-(4-nitro-phenyl)-1H-quinoline-2,4-dione] | 904 | – | 73.5 | 40.9 | 7.4 | 13.5 | 0 | 44.2 | 26.4 | 20.3 | 17.5 | – | 150 to 151 | – | – | – | – | – | –
9 | CC1(c2ccc(OCc3ccccc3)c(Br)c2)C(=O)Nc2cc(Cl)cc(Cl)c2C1=O (centres unmarked) [Example 23, 3-(4-benzyloxy-3-bromo-phenyl)-5,7-dichloro-3-methyl-1H-quinoline-2,4-dione] | 1260 | – | 70.6 | 16.8 | 9.6 | 32.5 | 0.7 | 64.9 | 26.4 | 21.9 | 27.4 | – | 189 to 190 | – | – | – | – | – | –
10 | CN(C)c1cc(Cl)c2c(c1)NC(=O)C(C)(c1ccccc1)C2=O (centres unmarked) [Example 11, 5-chloro-7-dimethylamino-3-methyl-3-phenyl-1H-quinoline-2,4-dione] | 1160 | – | 70.7 | 40.5 | 19.3 | 20.5 | 0.4 | 49.5 | 30.4 | 20 | 35.2 | – | 224 to 226 | – | – | – | – | – | –
